In patent US12721870B2 (priority 2021, dated 2026):
Where “and” joins values, the source holds several entries; their conditions need not be identical. Identical values can stand only once.

Columns and labels:
[1] = test system: cyclophosphamide (CPP)-induced animal model; assay: Antibodies in blood of CPP-induced animal model (ELISA); format: in vivo; details: mice, 150 mg/kg CPP only, serum ELISA
Protocol: (§1) The blood of a CPP-induced animal model was reacted at room temperature for two hours and then centrifuged at 4000 rpm for 10 minutes to isolate serum. The secretion amounts of IgG, IgA, and IgM were measured from the isolated serum using an ELISA kit (Thermo, US).

[2] = test system: cyclophosphamide (CPP)-induced animal model; assay: Cytokines in blood of CPP-induced animal model (ELISA); format: in vivo; details: mice, 150 mg/kg CPP only, serum ELISA; tendency
Protocol: as §1
In addition, enzyme-linked immunosorbent assay (ELISA) for IL-6, IL-2, IL-10, and IL-4 was performed using the serum.

splenocytes = assay: Cell viability of splenocytes from CPP-induced animal model (WST); format: in vivo; details: mice, 150 mg/kg CPP only, splenocytes incubated 48 hours
Protocol: To measure the cell viability of splenocytes, a collection of cells involved in various cellular immunity, splenocytes from each mouse were seeded in a 96-well plate at 1×10^4 cells/well and then incubated in a 37° C. CO2 incubator for 48 hours. Next, the splenocytes were treated with WST to measure cell viability.

[3] = test system: cyclophosphamide (CPP)-induced animal model; assay: Thymus and spleen weight in CPP-induced animal model; format: in vivo; details: mice
Protocol: To confirm the immunity-enhancing efficacy of the V5 strain in a cyclophosphamide (CPP)-induced animal model, tests were performed for each concentration of the V5 strain. Cyclophosphamide (CPP) is an anticancer drug widely used for all types of cancers, sarcomas, leukemia, and malignant lymphoma, and is a non-specific immunosuppressant. […] When CPP suppresses immunity, the weight of the thymus, an immune tissue, and the number of thymocytes are reduced, and the spleen weight is increased as a result of a defense mechanism against immunosuppression.
To confirm the effect of the V5 strain on the weight of the thymus and spleen of a CPP-induced animal model, the weight of the thymus and spleen of the animal model was measured.

[4] = test system: natural killer cells (NK cells); assay: Cytotoxicity of NK cells from CPP-induced animal model (LDH, YAC-1 cells); details: mice, 150 mg/kg CPP only, YAC-1 cells: splenocytes 1:50, four hours
Protocol: The test was performed in the following four groups with seven mice per group: a normal control (NC), a group treated with 150 mg/kg of CPP, a group treated with 1×10^9 CFU/mouse (10^9 CFU) ATG-V5 (V5 strain), and a group treated with 1×10^10 CFU/mouse (V5 10^10 CFU) ATG-V5 (V5 strain).
To measure the cytotoxicity of natural killer cells (NK cells), the spleen was isolated from a CPP-induced animal model, and then the tissue was ground to obtain splenocytes. Next, the splenocytes were mixed with YAC-1 cells in a ratio of the YAC-1 cells: the splenocytes of 1:50 and then incubated in a CO2 incubator at 37° C. for four hours. The amount of LDH was measured using an LDH-cell cytotoxicity assay kit.

[5] = test system: Th1, Th2, Th17, and Treg cells; assay: T cell subset marker mRNA in splenocytes of CPP-induced animal model (qPCR); format: in vivo; details: mice, 150 mg/kg CPP only
Protocol: In addition, RNA was isolated from the splenocytes at 2×10^6 cells/sample using a TRIZOL® reagent (Thermo, US), and cDNA was synthesized using ACCUPOWER® RT PreMix & Master Mix (Bioneer, KO). To confirm changes in differentiation of Th1, Th2, Th17, and Treg cells, T cell subsets, using the synthesized cDNA and ACCUPOWER® GreenStar™ qPCR PreMix (Bioneer, KO), expression levels of TBX21, GATA3, RORγt, IL-17A, Foxp3, and CTLA-4 mRNA in these cells were measured.

O=P1(N(CCCl)CCCl)NCCCO1 (stereo not drawn) [CPP, cyclophosphamide]
Secretion amount of IgA in the blood [1]: reduced | Secretion amount of IgG in the blood [1]: reduced | Secretion amount of IgM in the blood [1]: failed to cause changes | Cytokines in the blood (IL-6, IL-2, IL-10, IL-4) [2]: reduced | Cell viability of splenocytes (splenocytes): 99.98% | Thymus weight ([3]; group treated with 150 mg/kg of CPP only (normal control 0.061 g), 150 mg/kg): 0.03 g and 0.031 g | Spleen weight ([3]; group treated with 150 mg/kg of CPP only (normal control 0.105 g)): 0.170 g | Cytotoxicity of NK cells [4]: 144% | Overall number of T cell subsets (mRNA in splenocytes) [5]: suppressing
